# Assay results as given in patent publication US12378224B2 (Dong-A Socio Holdings Co., Ltd., priority 2016, dated 2025).
# Target: human MER (528-end) (Homo sapiens (Human), UniProt Q12866)
# Assay: HTRF Kinase Activity Biochemical Assay (KinEASE-TK)
# Conditions: 10 uM ATP
# Procedure, shortened: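 Activity read-out is the HTRF ratio (665 nm over 620 nm emission, ×10,000; excitation 340 nm) after 1 h detection with 0.375 nM Eu3+-cryptate anti-TK antibody plus 0.062 uM SA-XL665. Preceding kinase step: human MER (528-end), biotinylated TK substrate, 1 h, room temperature.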
# human MER (528-end), sequence (Q12866 528-999 limits assumed): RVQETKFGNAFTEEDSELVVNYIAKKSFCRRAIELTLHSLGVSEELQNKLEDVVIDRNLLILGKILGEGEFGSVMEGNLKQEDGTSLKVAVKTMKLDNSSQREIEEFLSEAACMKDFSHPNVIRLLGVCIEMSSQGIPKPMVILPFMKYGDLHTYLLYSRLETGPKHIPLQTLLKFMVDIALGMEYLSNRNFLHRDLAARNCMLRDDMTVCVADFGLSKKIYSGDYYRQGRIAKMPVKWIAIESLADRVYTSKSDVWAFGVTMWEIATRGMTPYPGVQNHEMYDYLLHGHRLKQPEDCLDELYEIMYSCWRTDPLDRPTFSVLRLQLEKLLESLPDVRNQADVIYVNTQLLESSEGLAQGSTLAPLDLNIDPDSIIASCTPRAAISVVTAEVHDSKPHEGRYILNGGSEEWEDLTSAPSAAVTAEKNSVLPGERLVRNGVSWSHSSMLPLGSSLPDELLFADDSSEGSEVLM
row,Compound,IC50 [µM]
1,"Cn1cc(-c2cnc(N)c(C(=O)N[C@@H]3CCN(C(=O)c4ccc(-c5ccc(CC#N)cc5)cc4)C3)c2)cn1 [Example 676, (R)-2-amino-N-(1-(4′-(cyanomethyl)-[1,1′-biphenyl]-4-carbonyl)pyrrolidin-3-yl)-5-(1-methyl-1H-pyrazol-4-yl)nicotinamide]",0.1 to 1
2,"Cn1cc(-c2cnc(N)c(C(=O)N[C@@H]3CCN(C(=O)c4ccc(-c5ccc(C(N)=O)c(F)c5)cc4)C3)c2)cn1 [Example 680, (R)-2-amino-N-(1-(4′-carbamoyl-3′-fluoro-[1,1′-biphenyl]-4-carbonyl)pyrrolidin-3-yl)-5-(1-methyl-1H-pyrazol-4-yl)nicotinamide]",0.1 to 1
3,"Cn1cc(-c2cnc(N)c(C(=O)N[C@H]3CN(C(=O)c4ccc(-c5ccc(F)cc5Cl)cc4)C[C@H]3F)c2)cn1 [Example 682, 2-amino-N-((3S,4R)-1-(2′-chloro-4′-fluoro-[1,1′-biphenyl]-4-carbonyl)-4-fluoropyrrolidin-3-yl)-5-(1-methyl-1H-pyrazol-4-yl)nicotinamide]",> 1
4,"COC(=O)[C@H]1C[C@@H](NC(=O)c2cc(-c3cnn(C)c3)cnc2N)CN1C(=O)c1ccc(-c2ccccc2)cc1 [Example 683, methyl (2R,4R)-1-([1,1′-biphenyl]-4-carbonyl)-4-(2-amino-5-(1-methyl-1H-pyrazol-4-yl)nicotinamido)pyrrolidine-2-carboxylate]",0.1 to 1
5,"COC(=O)[C@H]1C[C@@H](NC(=O)c2cc(-c3cnn(C)c3)cnc2N)CN1C(=O)c1cccc(-c2ccccc2)c1 [Example 684, Methyl (2R,4R)-1-([1,1′-biphenyl]-3-carbonyl)-4-(2-amino-5-(1-methyl-1H-pyrazol-4-yl)nicotinamido)pyrrolidine-2-carboxylate]",> 1
6,"COC(=O)[C@@H]1C[C@H](NC(=O)c2cc(-c3cnn(C)c3)cnc2N)CN1C(=O)c1ccc(-c2ccccc2)cc1 [Example 685, methyl (2S,4S)-1-([1,1′-biphenyl]-4-carbonyl)-4-(2-amino-5-(1-methyl-1H-pyrazol-4-yl)nicotinamido)pyrrolidine-2-carboxylate]",> 1
7,"COC(=O)[C@@H]1C[C@H](NC(=O)c2cc(-c3cnn(C)c3)cnc2N)CN1C(=O)c1cccc(-c2ccccc2)c1 [Example 686, methyl (2S,4S)-1-([1,1′-biphenyl]-3-carbonyl)-4-(2-amino-5-(1-methyl-1H-pyrazol-4-yl)nicotinamido)pyrrolidine-2-carboxylate]",> 1
8,"CCOC(=O)C1CN(C(=O)c2cccc(-c3ccccc3)c2)CC1NC(=O)c1cc(-c2cnn(C)c2)cnc1N (stereo not drawn) [Example 688, ethyl 1-([1,1′-biphenyl]-3-carbonyl)-4-(2-amino-5-(1-methyl-1H-pyrazol-4-yl)nicotinamido)pyrrolidine-3-carboxylate]",> 1
9,"Cc1cc(-c2cc(F)ccc2Cl)ccc1C(=O)N1CC[C@@H](NC(=O)c2cc(-c3cnn(C)c3)cnc2N)C1 [Example 691, (R)-2-amino-N-(1-(2′-chloro-5′-fluoro-3-methyl-[1,1′-biphenyl]-4-carbonyl)pyrrolidin-3-yl)-5-(1-methyl-1H-pyrazol-4-yl)nicotinamide]",> 1
10,"Cc1cc(C(=O)N2CC[C@@H](NC(=O)c3cc(-c4cnn(C)c4)cnc3N)C2)ccc1-c1cc(F)ccc1Cl [Example 692, (R)-2-amino-N-(1-(2′-chloro-5′-fluoro-2-methyl-[1,1′-biphenyl]-4-carbonyl)pyrrolidin-3-yl)-5-(1-methyl-1H-pyrazol-4-yl)nicotinamide]",0.01 to 0.1
11,"Cn1cc(-c2cnc(N)c(C(=O)N[C@@H]3CCN(C(=O)c4ccc(-c5cc(F)ccc5Cl)cc4Cl)C3)c2)cn1 [Example 693, (R)-2-amino-N-(1-(2′,3-dichloro-5′-fluoro-[1,1′-biphenyl]-4-carbonyl)pyrrolidin-3-yl)-5-(1-methyl-1H-pyrazol-4-yl)nicotinamide]",> 1
12,"Cn1cc(-c2cnc(N)c(C(=O)N[C@@H]3CCN(C(=O)c4ccc(-c5ccc(F)cc5Cl)cc4Cl)C3)c2)cn1 [Example 694, (R)-2-amino-N-(1-(2′,3-dichloro-4′-fluoro-[1,1′-biphenyl]-4-carbonyl)pyrrolidin-3-yl)-5-(1-methyl-1H-pyrazol-4-yl)nicotinamide]",> 1
13,"Cn1cc(-c2cnc(N)c(C(=O)N[C@@H]3CCN(C(=O)[C@H]4C[C@@H]4c4ccccc4)C3)c2)cn1 [Example 705, 2-amino-5-(1-methyl-1H-pyrazol-4-yl)-N—((R)-1-((1S,2S)-2-phenylcyclopropane-1-carbonyl)pyrrolidin-3-yl)nicotinamide]",> 1
14,"Cn1cc(-c2cnc(N)c(C(=O)N[C@@H]3CCN(C(=O)c4ccc(F)cc4Cl)C3)c2)cn1 [Example 716, (R)-2-amino-N-(1-(2-chloro-4-fluorobenzoyl)pyrrolidin-3-yl)-5-(1-methyl-1H-pyrazol-4-yl)nicotinamide]",> 1
15,"Cn1cc(-c2cnc(N)c(C(=O)N[C@@H]3CCN(C(=O)c4ccc(-c5ccc(C#N)cc5)cc4)C3)c2)cn1 [Example 726, (R)-2-amino-N-(1-(4′-cyano-[1,1′-biphenyl]-4-carbonyl)pyrrolidin-3-yl)-5-(1-methyl-1H-pyrazol-4-yl)nicotinamide]",0.1 to 1
16,"Cn1cc(-c2cnc(N)c(C(=O)N[C@@H]3CCN(C(=O)c4ccc(-c5cccc(CN)c5)cc4)C3)c2)cn1 [Example 727, (R)-2-amino-N-(1-(3′-(aminomethyl)-[1,1′-biphenyl]-4-carbonyl)pyrrolidin-3-yl)-5-(1-methyl-1H-pyrazol-4-yl)nicotinamide]",0.01 to 0.1
17,"Cn1cc(-c2cnc(N)c(C(=O)N[C@@H]3CCN(C(=O)c4ccc(-c5ccccc5)cc4N)C3)c2)cn1 [Example 728, (R)-2-amino-N-(1-(3-amino-[1,1′-biphenyl]-4-carbonyl)pyrrolidin-3-yl)-5-(1-methyl-1H-pyrazol-4-yl)nicotinamide]",0.1 to 1
18,"Cn1cc(-c2cnc(N)c(C(=O)N[C@@H]3CCN(C(=O)/C=C/c4ccc(-c5ccccc5)cc4)C3)c2)cn1 [Example 730, (R,E)-N-(1-(3-([1,1′-biphenyl]-4-yl)acryloyl)pyrrolidin-3-yl)-2-amino-5-(1-methyl-1H-pyrazol-4-yl)nicotinamide]",0.1 to 1
19,"Cn1cc(-c2cnc(N)c(C(=O)N[C@@H]3CCN(C(=O)c4ccc(Oc5ccccc5)cc4)C3)c2)cn1 [Example 731, (R)-2-amino-5-(1-methyl-1H-pyrazol-4-yl)-N-(1-(4-phenoxybenzoyl)pyrrolidin-3-yl)nicotinamide]",0.1 to 1
20,"Cn1cc(-c2cnc(N)c(C(=O)N[C@@H]3CCN(C(=O)c4cccc(Br)c4)C3)c2)cn1 [Example 733, (R)-2-amino-N-(1-(3-bromobenzoyl)pyrrolidin-3-yl)-5-(1-methyl-1H-pyrazol-4-yl)nicotinamide]",> 1
21,"Cn1cc(-c2cnc(N)c(C(=O)NC[C@H]3CCCN3C(=O)c3ccc(-c4ccccc4)cc3)c2)cn1 [Example 736, (R)—N-((1-([1,1′-biphenyl]-4-carbonyl)pyrrolidin-2-yl)methyl)-2-amino-5-(1-methyl-1H-pyrazol-4-yl)nicotinamide]",> 1
22,"Cn1cc(-c2cnc(N)c(C(=O)NC[C@@H]3CCN(C(=O)c4ccc(-c5ccccc5)cc4)C3)c2)cn1 [Example 738, (S)—N-((1-([1,1′-biphenyl]-4-carbonyl)pyrrolidin-3-yl)methyl)-2-amino-5-(1-methyl-1H-pyrazol-4-yl)nicotinamide]",> 1
23,Cn1cc(-c2cnc(N)c(C(=O)NC[C@@H]3CCN(C(=O)c4cccc(-c5ccccc5)c4)C3)c2)cn1 [Example 739],> 1
24,"Cn1cc(-c2cnc(N)c(C(=O)N[C@@H]3CCN(C(=O)c4ccc(-c5ccccc5)cc4)C3)n2)cn1 [Example 744, (R)—N-(1-([1,1′-biphenyl]-4-carbonyl)pyrrolidin-3-yl)-3-amino-6-(1-methyl-1H-pyrazol-4-yl)pyrazine-2-carboxamide]",0.1 to 1
25,"Nc1ncc(-c2ccccc2)cc1C(=O)N[C@@H]1CCN(C(=O)c2ccc(-c3ccc(F)cc3Cl)cc2)C1 [Example 775, (R)-2-amino-N-(1-(2′-chloro-4′-fluoro-[1,1′-biphenyl]-4-carbonyl)pyrrolidin-3-yl)-5-phenylnicotinamide]",0.1 to 1
26,"CC(C)(c1ccc(-c2cnc(N)c(C(=O)N[C@@H]3CCN(C(=O)c4ccc(-c5ccccc5)cc4)C3)c2)cc1)N1CCN(S(=O)(=O)c2ccccc2[N+](=O)[O-])CC1 [Example 783, (R)—N-(1-([1,1′-biphenyl]-4-carbonyl)pyrrolidin-3-yl)-2-amino-5-(4-(2-(4-((2-nitrophenyl)sulfonyl)piperazin-1-yl)propan-2-yl)phenyl)nicotinamide]",0.1 to 1
27,"Cn1cc(-c2cnc(N)c(C(=O)N[C@@H]3CCN(C(=O)c4ccc(-c5ccc(Oc6ccc(N)nc6)cc5)cc4)C3)c2)cn1 [Example 813, (R)-2-amino-N-(1-(4′-((6-aminopyridin-3-yl)oxy)-[1,1′-biphenyl]-4-carbonyl)pyrrolidin-3-yl)-5-(1-methyl-1H-pyrazol-4-yl)nicotinamide]",0.1 to 1
28,"Cn1cc(-c2cnc(N)c(C(=O)N[C@@H]3CCN(C(=O)c4ccc(-c5ccc(Oc6nn[nH]n6)cc5)cc4)C3)c2)cn1 [Example 814, (R)—N-(1-(4′-((2H-tetrazol-5-yl)oxy)-[1,1′-biphenyl]-4-carbonyl)pyrrolidin-3-yl)-2-amino-5-(1-methyl-1H-pyrazol-4-yl)nicotinamide]",0.1 to 1
29,"Cn1cc(-c2cnc(N)c(C(=O)N[C@@H]3CCN(C(=O)c4ccc(/C=C/c5ccncc5)cc4)C3)c2)cn1 [Example 824, (R,E)-2-amino-5-(1-methyl-1H-pyrazol-4-yl)—N-(1-(4-(2-(pyridin-4-yl)vinyl)benzoyl)pyrrolidin-3-yl)nicotinamide]",0.1 to 1
30,"Cn1cc(-c2cnc(N)c(C(=O)N[C@@H]3CCN(C(=O)c4ccc(/C=C/c5ccccn5)cc4)C3)c2)cn1 [Example 825, (R,E)-2-amino-5-(1-methyl-1H-pyrazol-4-yl)—N-(1-(4-(2-(pyridin-2-yl)vinyl)benzoyl)pyrrolidin-3-yl)nicotinamide]",0.1 to 1
